We go through 5 compounds from paper PMC5329164 (Cancer Science, 2017).

Each structure is given as a SMILES string. Values after ≈ are worked out from the molar mass of the structure shown.

Data set [1] relates to UM‐UC‐14 [FGFR3_S249C]. Kind of data set: In vitro cell growth assay. The format is cell-based. Conditions: Homo sapiens, UMUC14, 120 h, read-out: IC50, anti-proliferative effect.
The subject of data set [2] is adriamycin‐resistant UM‐UC‐14 cell line. Description: In vitro cell growth assay, adriamycin-resistant UM-UC-14.
Data set [3] concerns urothelial cancer harboring FGFR3 gene alternation. Conditions: 25 evaluable urothelial cancer patients with FGFR3 gene alternation; cited from earlier work.
For data set [4] the following is noted: cited from earlier work; for T 1/2: clinical information; for hyperphosphatemia: clinical.
The test system of data set [5] is RT‐112 [FGFR3‐TACC3]. Description: In vitro cell growth assay. Type of data set: cell-based. Conditions: Homo sapiens, RT-112, 120 h, read-out: IC50, proliferation.
In data set [6] the test system is tumors harboring FGFR3‐TACC3 fusion genes. Conditions: patients with tumors harboring FGFR3-TACC3 fusion genes; cited from earlier work.
The subject of data set [7] is c‐MYC expression in lung cancer cell lines harboring FGFR1 overexpression. Conditions: cited from earlier work.

With `COc1cccc2c1C(=O)c1c(O)c3c(c(O)c1C2=O)C[C@@](O)(C(=O)CO)C[C@@H]3O[C@H]1C[C@H](N)[C@H](O)[C@H](C)O1` [Adriamycin], the IC50 in data set [1] came to 6.7 ng/mL (≈ 0.0123 µM); in data set [2] (Homo sapiens, UMUC14, 120 h, read-out: IC50, anti-proliferative effect) it was 58 ng/mL (≈ 0.107 µM). Moreover, in data set [2] (adriamycin-resistant UM-UC-14 vs parental UM-UC-14), the “fold weaker anti-proliferative effect in resistant vs parental cell line” value was 8.7 folds.

With `CCN1CCN(c2ccc(Nc3cc(N(C)C(=O)Nc4c(Cl)c(OC)cc(OC)c4Cl)ncn3)cc2)CC1` [BGJ398, 3‐(2,6‐dichloro‐3,5‐dimethoxy‐phenyl)‐1‐{6‐[4‐(4‐ethyl‐piperazin‐1‐yl)‐phenylamino]‐pyrimidin‐4‐yl}‐1‐methyl‐urea], in data set [3], the overall response rate is 36%. In addition, in data set [4], the “T 1/2” value is recorded as “quite large” and the hyperphosphatemia result is “commonly observed”.

Take `Nc1ccn([C@@H]2O[C@H](CO)[C@@H](O)C2(F)F)c(=O)n1` [Gemcitabine]: in data set [5], the IC50 was 0.95 ng/mL (≈ 0.00361 µM).

On to `COc1cc(OC)cc(N(CCNC(C)C)c2ccc3ncc(-c4cnn(C)c4)nc3c2)c1` [JNJ‐42756493], for which, in data set [6], the partial responses entry is reported as “three out of four partial responses”. Further, in data set [4], the “T 1/2” value is reported as “quite large” and the hyperphosphatemia entry is recorded as “commonly observed”.

On to `CCN(CC)CCCCNc1ncc2cc(-c3cc(OC)cc(OC)c3)c(NC(=O)NC(C)(C)C)nc2n1` [PD173074, 1‐tert‐butyl‐3‐[6‐(3,5‐dimethoxy‐phenyl)‐2‐(4‐diethylamino‐butylamino)‐pyrido[2,3‐d]pyrimidin‐7‐yl]‐urea], for which the c-MYC expression result in data set [7] is recorded as “decreased”.
